Measurements reported in patent US12691070B2, “Cationic lipids and preparation method thereof” (RiboX Therapeutics HK Limited, priority 2023, dated 2026).

Columns and labels:
[1] = LNP size and polydispersity index (PDI) by dynamic light scattering; assay type: physicochemical; settings: LNP with cirRNA (SEQ ID NO: 1); for Size: in nm (unit assumed)
Experimental: (§1) Ionizable lipid, DSPC, Cholesterol and DMG-PEG 2000 were mixed at a molar ratio of 50:10:38.5:1.5 in absolute ethanol. Circular RNA and linear mRNA payloads were suspended in 25 mM Acetate Buffer (pH 4.5). To form LNPs, three volumes of luciferase encoding RNA, in the form of cirRNA (SEQ ID NO:1) and mRNA (SEQ ID NO:2) respectively, were mixed with one volume of lipids in ethanol solution by microfluidic mixing with the Nanoassemblr Ignite (Precision Nanosystems) at a flow rate of 12 ml/min. The molar ratio of ionizable lipid to ribonucleotide was 15 or 6. The final lipid concentration in solution ranged from 1.5 mM to 6 mM. After encapsulation, the particles were dialyzed twice against PBS.
(§2) The LNP size and polydispersity index (PDI), determined by dynamic light scattering (DLS), and zeta potential were measured by a Zetasizer machine (Malvern). RNA concentration and encapsulation efficacy were analyzed by the Quant-IT Ribogreen kit by calculating the percentage encapsulation at 100%−(RNA-LNPs/RNA-LNPs with Triton X-100).

[2] = LNP zeta potential (Zetasizer); assay type: physicochemical; settings: LNP with cirRNA (SEQ ID NO: 1)
Experimental: as §1, §2

[3] = RNA encapsulation efficacy by Quant-IT Ribogreen kit; assay type: physicochemical; settings: LNP with cirRNA (SEQ ID NO: 1)
Experimental: as §1, §2

Hep G2 cells [4] = test: In vitro expression of firefly-luciferase, Hep G2; assay type: cell-based; settings: cirRNA (SEQ ID NO: 1) LNPs; firefly-luciferase luminescence; Hep G2 cells
Experimental: (§3) RAW 264.7 and Hep G2 cells were transfected with 100 ng/mL of RNA-LNPs encoding for firefly-luciferase. At 72 hours post transfection, the cells were washed and lysed. The luciferase expression was determined in the cell lysates with the luciferase assay reagent kit (Promega), according to the kit protocol, luciferase activity was measured by a luminometer.

RAW 264.7 cells [5] = test: In vitro expression of firefly-luciferase, RAW 264.7; assay type: cell-based; settings: cirRNA (SEQ ID NO: 1) LNPs; firefly-luciferase luminescence; RAW 264.7 cells
Experimental: as §3

Hep G2 cells [6] = test: In vitro toxicity (CellTiter-Glo cell viability), Hep G2; assay type: cell-based; settings: cirRNA (SEQ ID NO: 1) LNPs; Hep G2 cells;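 note: percent of untreated cells luminescence signal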
Experimental: (§4) RAW 264.7 and Hep G2 cells were transfected with 1 μg/mL RNA-LNPs. At 72 hours post transfection, cell viability was determined with the CellTiter-Glo® reagent kit, according to the kit protocol, measured by a luminometer.
(§5) The cell viability was calculated according to the following formula: […]

RAW 264.7 cells [7] = test: In vitro toxicity (CellTiter-Glo cell viability), RAW 264.7; assay type: cell-based; settings: cirRNA (SEQ ID NO: 1) LNPs; RAW 264.7 cells;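 note: percent of untreated cells luminescence signal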
Experimental: as §4, §5

BALB/C mice = test: In vivo expression, whole-body luminescence (IVIS); settings: cirRNA (SEQ ID NO: 1) LNPs, BALB/C mice
Experimental: 6-8 week old, female BALB/C mice were injected with 0.05 mg*kg-1 of RNA-LNPs encoding for firefly-luciferase by intravenous injection. At 6 hours post injection, animals were intraperitoneally injected with 15 mg/ml of Luciferin substrate and whole-body luminescence was determined by a bioluminescent in vivo imaging system (IVIS).

| SMILES | PDI [1] | Size [1] | Zeta (mV) [2] | Encapsulation Efficiency % [3] | In vitro Expression HepG2 (Hep G2 cells [4]) | In vitro Expression RAW (RAW 264.7 cells [5]) | In vitro Viability HepG2 (Hep G2 cells [6]) | In vitro Viability RAW (RAW 264.7 cells [7]) | In vivo Expression (Whole Body) (BALB/C mice) |
| --- | --- | --- | --- | --- | --- | --- | --- | --- | --- |
| CCCCCCCCC(CCCCCCCC)OC(=O)CCCCCCCN(CCCCCCCCOC(=O)C(CCCCCC)CCCCCCCC)CCOC(=O)NCCN1CCCCC1 (stereo not shown) [Lipid 149, 8-((8-(heptadecan-9-yloxy)-8-oxooctyl)(2-(((2-(piperidin-1-yl)ethyl)carbamoyl)oxy)ethyl)amino)octyl 2-hexyldecanoate] | 0.02962 | 71.14 | 9.196 mV | 88% | 2.08E+05 | 1.91E+04 | 123% | 100% | 6.07E+07 |
| CCCCCCCCCCC(CCCCCCCC)COC(=O)CCCCCN(CCCCCC(=O)OCC(CCCCCCCC)CCCCCCCCCC)CCOC(=O)NCc1ncc[nH]1 (stereo not shown) [Lipid 171] | 0.1297 | 55.9 | −5.824 mV | 77% | 3.04E+05 | 2.44E+05 | 97% | 88% | 5.09E+07 |
| CCCCCCCCCCCOC(=O)CCCCCN(CCCCCCCCOC(=O)C(CCCCCC)CCCCCCCC)CCOC(=O)NCCN1CCCCC1 (stereo not shown) [Lipid 227] | 0.1088 | 79.97 | 4.217 mV | 92% | 4.71E+05 | 1.99E+05 | 82% | 83% | 9.21E+07 |
| CCCCCCCCC(CCCCCC)C(=O)OCCCCCCCCN(CCCCCCCCOC(=O)C(CCCCCC)CCCCCCCC)CCCOC(=O)NCCCN(C)C (stereo not shown) [Lipid 378] | 0.2637 | 130.6 | 6.729 mV | 93% | 3.39E+06 | 6.58E+05 | 26% | 75% | 8.79E+06 |
| CCCCC/C=C\C/C=C\CCCCCCCCN(CCCCCC(=O)OCC(CCCCCCCC)CCCCCCCCCC)CCOC(=O)NCc1ncc[nH]1 (stereo not shown) [Lipid 76, 2-octyldodecyl 6-((2-((((1H-imidazol-2-yl)methyl)carbamoyl)oxy)ethyl)((9Z,12Z)-octadeca-9,12-dien-1-yl)amino)hexanoate] | 0.1484 | 137.8 | 0.03131 mV | 96% | 1.22E+04 | 5.53E+02 | 121% | 86% | 2.55E+05 |
| CCCCCCCCC(CCCCCC)C(=O)OCCCCCCCCN(CCCCCCCCOC(=O)C(CCCCCC)CCCCCCCC)CCCOC(=O)NCCN1CCC1 (stereo not shown) [Lipid 382] | 0.2452 | 145.3 | 4.75 mV | 94% | 3.97E+05 | 5.69E+04 | 42% | 84% | 4.22E+06 |
| CCCCCCCCCCC(CCCCCCCC)COC(=O)CCCCCN(CCCCCC(=O)OCC(CCCCCCCC)CCCCCCCCCC)CCCOC(=O)NCCN1CCC1 (stereo not shown) [Lipid 372] | 0.2663 | 118.2 | 4.685 mV | 92% | 4.98E+03 | 3.30E+02 | 42% | 57% | 1.10E+06 |
| CCCCCCCCCC(=O)OCCCCCCCN(CCCCCCCCOC(=O)C(CCCCCC)CCCCCCCC)CCCOC(=O)NCCN1CCCC1 (stereo not shown) [Lipid 357] | 0.3136 | 104.3 | 6.34 mV | 87% | 2.53E+05 | 7.92E+03 | 120% | 8% | 1.85E+06 |
| CCCCC/C=C\C/C=C\CCCCCCCCN(CCCCCCCC(=O)OC(CCCCCCCC)CCCCCCCC)CCCOC(=O)NCCN1CCCC1 [Lipid 277] | 0.2188 | 76.75 | −0.6853 mV | 92% | 1.17E+07 | 8.13E+06 | 89% | 121% | 7.29E+07 |
| CCCCC/C=C\C/C=C\CCCCCCCCN(CCCCCC(=O)OCC/C=C\CCCCC)CCOC(=O)NCc1ccncc1 [Lipid 99, (Z)-non-3-en-1-yl 6-(((9Z,12Z)-octadeca-9,12-dien-1-yl)(2-(((pyridin-4-ylmethyl)carbamoyl)oxy)ethyl)amino)hexanoate] | – | – | – | – | 1.13E+04 | 1.01E+04 | 78% | 137% | 5.53E+07 |
| CCCCC/C=C\CCOC(=O)CCCCCN(CCCCCCCCOC(=O)C(CCCCCC)CCCCCCCC)CCOC(=O)NCCN(C)C (stereo not shown) [Lipid 184] | – | – | – | – | 9.87E+04 | 1.93E+03 | 91% | 88% | 5.28E+07 |
| CCCCCCCCCCCOC(=O)CCCCCN(CCCCCC(=O)OCCCCCCCCCCC)CCOC(=O)NCCN1CCN(C)CC1 [Lipid 156, diundecyl 6,6′-((2-(((2-(4-methylpiperazin-1-yl)ethyl)carbamoyl)oxy)ethyl)azanediyl)dihexanoate] | – | – | – | – | 2.86E+04 | 1.67E+03 | 84% | 93% | 4.92E+04 |
| CCCCCCCOC(=O)CCCCCCCCCN(CCCCCCCCCC(=O)OCCCCCCC)CCOC(=O)NCCN1CCCCC1 [Lipid 118, diheptyl 10,10′-((2-(((2-(piperidin-1-yl)ethyl)carbamoyl)oxy)ethyl)azanediyl)bis(decanoate)] | – | – | – | – | 1.43E+03 | 1.42E+04 | 19% | 8% | 7.90E+06 |
| CCCCCCCCCC(=O)OCCCCCCCN(CCCCCCCOC(=O)CCCCCCCCC)CCOC(=O)NCc1ncc[nH]1 [Lipid 176] | – | – | – | – | 6.28E+03 | 4.83E+04 | 88% | 93% | 1.31E+07 |
| CCCCCCCCCCCOC(=O)CCCCCN(CCCCCCCC(=O)OC(CCCCCCCC)CCCCCCCC)CCOC(=O)NCCN1CCN(C)CC1 [Lipid 160, heptadecan-9-yl 8-((2-(((2-(4-methylpiperazin-1-yl)ethyl)carbamoyl)oxy)ethyl)(6-oxo-6-(undecyloxy)hexyl)amino)octanoate] | – | – | – | – | 6.38E+05 | 1.94E+04 | 94% | 93% | 4.44E+05 |
| CCCCCCOC(=O)CCCCCCCCCCN(CCCCCCCCCCC(=O)OCCCCCC)CCOC(=O)NCCN1CCOCC1 [Lipid 139, dihexyl 11,11′-((2-(((2-morpholinoethyl)carbamoyl)oxy)ethyl)azanediyl)diundecanoate] | – | – | – | – | 4.85E+01 | 1.64E+02 | 16% | 8% | 3.48E+06 |
| CCCCC/C=C\C/C=C\CCCCCCCCN(CCCCCC(=O)OCC(CCCCCCCC)CCCCCCCCCC)CCOC(=O)NCCCN(C)C (stereo not shown) [Lipid 81, 2-octyldodecyl 2-methyl-11-((9Z,12Z)-octadeca-9,12-dien-1-yl)-7-oxo-8-oxa-2,6,11-triazaheptadecan-17-oate] | – | – | – | – | 6.71E+04 | 1.56E+03 | 121% | 107% | 1.15E+04 |
